# Measurements: patent US20080262000A1, “5-Alkoxyalkyl-6-alkyl-7-Aminoazolopyrimidines, Process for Their Preparation, Their Use for Controlling Harmful Fungi, and Compositions Comprising Them” (BASF Aktiengesellschaft, priority 2005, published 2008)
# Like-named read-outs stand apart in the source and are kept apart here.
# System: Phytophthora infestans
# Assay type: in vivo
# Details: potted tomato plants, untreated plants 90% infestation
# [1] = 1 day of protective treatment, 250 ppm
# [2] = 3 days of protective treatment, 250 ppm
Structure (SMILES),infestation [1] [%],infestation [2] [%],"infestation (1 day of protective treatment, 16 ppm) [%]"
CCCCCCCCOCCCc1c(CCC)nc2ncnn2c1N [comparative compound B],90,90,–
CCCCCCCCOCCCc1c(COC)nc2ncnn2c1N [I-4],1,–,–
CCCCCCCCc1c(C)nc2ncnn2c1N [comparative compound A],–,90,70
